The values below come from US20250114345A1, “COMPOUNDS AND COMPOSITIONS AS CBP/P300 DEGRADERS AND USES THEREOF” (Oncopia Therapeutics, Inc. d/b/a/ SK Life Science Labs, priority 2023, published 2025).

Assay [1] concerns the target T1, p300 (Homo sapiens, UniProt Q09472).
T1 construct: host or cells: A549 P300 HiBit cells
Nature of the assay: P300 degradation, HiBit technology in A549 P300 HiBit cells (2 h). Format: cell-based. To be noted: 2 hrs post treatment; for Dmax: A549, A549 P300 HiBit cells; for DC50: A549 P300 HiBit cells. An outline of the steps: (§1)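 Degradation potency and Dmax came from HiBiT luminescence in tagged A549 cells treated with serially diluted compound (DMSO stocks at 10 mM) after overnight equilibration in F-12K with 10% heat-inactivated FBS.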
In general terms: The HiBiT peptide binds its large partner to form an active luciferase.

In assay [2] the target is T2, CBP (Homo sapiens, UniProt Q92793).
T2 construct: host or cells: A549 CBP HiBit cells
T2 sequence (Q92793 whole entry): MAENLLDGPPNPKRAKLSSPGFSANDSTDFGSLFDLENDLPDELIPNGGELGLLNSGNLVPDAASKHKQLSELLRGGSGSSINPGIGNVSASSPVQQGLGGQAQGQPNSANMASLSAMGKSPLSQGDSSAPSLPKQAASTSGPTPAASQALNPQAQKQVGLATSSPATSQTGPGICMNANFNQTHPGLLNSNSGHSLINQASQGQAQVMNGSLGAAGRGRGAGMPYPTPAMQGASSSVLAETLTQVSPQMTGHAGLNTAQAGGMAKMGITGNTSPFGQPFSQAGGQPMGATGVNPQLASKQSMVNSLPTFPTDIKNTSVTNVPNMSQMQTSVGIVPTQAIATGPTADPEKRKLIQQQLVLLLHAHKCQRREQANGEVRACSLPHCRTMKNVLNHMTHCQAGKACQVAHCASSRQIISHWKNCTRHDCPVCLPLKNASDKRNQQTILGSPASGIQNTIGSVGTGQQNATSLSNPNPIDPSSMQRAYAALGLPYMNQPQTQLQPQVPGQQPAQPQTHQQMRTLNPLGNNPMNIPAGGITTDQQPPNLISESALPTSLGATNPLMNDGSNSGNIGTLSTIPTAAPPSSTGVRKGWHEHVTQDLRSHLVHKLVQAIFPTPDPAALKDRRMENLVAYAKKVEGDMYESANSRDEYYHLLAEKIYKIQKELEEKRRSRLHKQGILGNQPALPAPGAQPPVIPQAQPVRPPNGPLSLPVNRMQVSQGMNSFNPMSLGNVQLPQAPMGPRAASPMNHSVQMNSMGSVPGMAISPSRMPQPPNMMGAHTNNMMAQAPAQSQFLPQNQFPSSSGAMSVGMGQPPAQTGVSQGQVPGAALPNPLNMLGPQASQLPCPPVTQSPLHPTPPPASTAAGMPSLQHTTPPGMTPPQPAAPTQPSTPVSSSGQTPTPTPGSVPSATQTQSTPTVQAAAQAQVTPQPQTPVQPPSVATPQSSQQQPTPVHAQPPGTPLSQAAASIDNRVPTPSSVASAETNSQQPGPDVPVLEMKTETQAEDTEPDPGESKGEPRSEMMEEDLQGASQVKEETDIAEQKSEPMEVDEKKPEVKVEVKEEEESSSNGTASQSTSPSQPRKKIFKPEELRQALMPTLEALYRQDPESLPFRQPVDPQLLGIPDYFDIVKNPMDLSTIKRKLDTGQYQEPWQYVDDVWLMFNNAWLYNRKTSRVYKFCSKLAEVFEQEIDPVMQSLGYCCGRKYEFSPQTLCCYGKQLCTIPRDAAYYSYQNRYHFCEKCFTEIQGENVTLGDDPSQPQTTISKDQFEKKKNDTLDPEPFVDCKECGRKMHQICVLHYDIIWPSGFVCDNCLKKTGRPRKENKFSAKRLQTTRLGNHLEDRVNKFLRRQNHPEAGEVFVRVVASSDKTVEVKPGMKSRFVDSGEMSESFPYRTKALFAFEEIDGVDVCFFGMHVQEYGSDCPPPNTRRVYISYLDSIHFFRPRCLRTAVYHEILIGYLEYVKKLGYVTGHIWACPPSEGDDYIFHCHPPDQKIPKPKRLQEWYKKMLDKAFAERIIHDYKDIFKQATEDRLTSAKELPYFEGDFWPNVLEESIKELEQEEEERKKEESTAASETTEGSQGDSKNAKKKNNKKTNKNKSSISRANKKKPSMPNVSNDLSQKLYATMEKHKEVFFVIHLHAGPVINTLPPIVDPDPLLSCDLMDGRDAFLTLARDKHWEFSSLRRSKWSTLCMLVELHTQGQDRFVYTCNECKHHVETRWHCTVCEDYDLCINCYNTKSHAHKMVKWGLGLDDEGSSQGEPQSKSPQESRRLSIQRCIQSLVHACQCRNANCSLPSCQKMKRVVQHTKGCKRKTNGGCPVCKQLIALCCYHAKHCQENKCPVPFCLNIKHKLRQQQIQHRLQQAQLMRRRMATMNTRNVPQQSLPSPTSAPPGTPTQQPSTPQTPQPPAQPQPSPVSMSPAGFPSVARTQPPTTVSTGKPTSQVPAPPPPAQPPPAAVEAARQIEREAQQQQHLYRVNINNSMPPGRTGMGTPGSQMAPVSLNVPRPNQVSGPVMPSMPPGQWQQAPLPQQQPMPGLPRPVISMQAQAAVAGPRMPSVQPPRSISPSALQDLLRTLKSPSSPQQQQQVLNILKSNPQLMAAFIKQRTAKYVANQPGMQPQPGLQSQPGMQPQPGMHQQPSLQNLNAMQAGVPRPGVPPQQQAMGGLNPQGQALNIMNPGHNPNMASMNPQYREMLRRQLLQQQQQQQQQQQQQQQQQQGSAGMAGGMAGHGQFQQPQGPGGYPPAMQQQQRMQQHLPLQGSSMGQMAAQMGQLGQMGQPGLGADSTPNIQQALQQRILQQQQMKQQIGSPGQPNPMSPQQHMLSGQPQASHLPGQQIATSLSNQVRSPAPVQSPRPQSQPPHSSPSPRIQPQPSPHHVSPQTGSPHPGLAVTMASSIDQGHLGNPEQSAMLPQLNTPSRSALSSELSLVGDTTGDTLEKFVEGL
The experiment in a line: CBP degradation, HiBit technology in A549 CBP HiBit cells (24 h). The settings on record: 24 hrs post treatment. Format: cell-based. An outline of the steps: as §1

As usually defined, the Dmax is the greatest extent of degradation seen. The low end stands for shallow degradation, the high end for deep degradation. The DC50 is the concentration giving 50% degradation. Low values mean a more potent degrader, high ones a less potent degrader.

T1 sequence (Q09472 whole entry): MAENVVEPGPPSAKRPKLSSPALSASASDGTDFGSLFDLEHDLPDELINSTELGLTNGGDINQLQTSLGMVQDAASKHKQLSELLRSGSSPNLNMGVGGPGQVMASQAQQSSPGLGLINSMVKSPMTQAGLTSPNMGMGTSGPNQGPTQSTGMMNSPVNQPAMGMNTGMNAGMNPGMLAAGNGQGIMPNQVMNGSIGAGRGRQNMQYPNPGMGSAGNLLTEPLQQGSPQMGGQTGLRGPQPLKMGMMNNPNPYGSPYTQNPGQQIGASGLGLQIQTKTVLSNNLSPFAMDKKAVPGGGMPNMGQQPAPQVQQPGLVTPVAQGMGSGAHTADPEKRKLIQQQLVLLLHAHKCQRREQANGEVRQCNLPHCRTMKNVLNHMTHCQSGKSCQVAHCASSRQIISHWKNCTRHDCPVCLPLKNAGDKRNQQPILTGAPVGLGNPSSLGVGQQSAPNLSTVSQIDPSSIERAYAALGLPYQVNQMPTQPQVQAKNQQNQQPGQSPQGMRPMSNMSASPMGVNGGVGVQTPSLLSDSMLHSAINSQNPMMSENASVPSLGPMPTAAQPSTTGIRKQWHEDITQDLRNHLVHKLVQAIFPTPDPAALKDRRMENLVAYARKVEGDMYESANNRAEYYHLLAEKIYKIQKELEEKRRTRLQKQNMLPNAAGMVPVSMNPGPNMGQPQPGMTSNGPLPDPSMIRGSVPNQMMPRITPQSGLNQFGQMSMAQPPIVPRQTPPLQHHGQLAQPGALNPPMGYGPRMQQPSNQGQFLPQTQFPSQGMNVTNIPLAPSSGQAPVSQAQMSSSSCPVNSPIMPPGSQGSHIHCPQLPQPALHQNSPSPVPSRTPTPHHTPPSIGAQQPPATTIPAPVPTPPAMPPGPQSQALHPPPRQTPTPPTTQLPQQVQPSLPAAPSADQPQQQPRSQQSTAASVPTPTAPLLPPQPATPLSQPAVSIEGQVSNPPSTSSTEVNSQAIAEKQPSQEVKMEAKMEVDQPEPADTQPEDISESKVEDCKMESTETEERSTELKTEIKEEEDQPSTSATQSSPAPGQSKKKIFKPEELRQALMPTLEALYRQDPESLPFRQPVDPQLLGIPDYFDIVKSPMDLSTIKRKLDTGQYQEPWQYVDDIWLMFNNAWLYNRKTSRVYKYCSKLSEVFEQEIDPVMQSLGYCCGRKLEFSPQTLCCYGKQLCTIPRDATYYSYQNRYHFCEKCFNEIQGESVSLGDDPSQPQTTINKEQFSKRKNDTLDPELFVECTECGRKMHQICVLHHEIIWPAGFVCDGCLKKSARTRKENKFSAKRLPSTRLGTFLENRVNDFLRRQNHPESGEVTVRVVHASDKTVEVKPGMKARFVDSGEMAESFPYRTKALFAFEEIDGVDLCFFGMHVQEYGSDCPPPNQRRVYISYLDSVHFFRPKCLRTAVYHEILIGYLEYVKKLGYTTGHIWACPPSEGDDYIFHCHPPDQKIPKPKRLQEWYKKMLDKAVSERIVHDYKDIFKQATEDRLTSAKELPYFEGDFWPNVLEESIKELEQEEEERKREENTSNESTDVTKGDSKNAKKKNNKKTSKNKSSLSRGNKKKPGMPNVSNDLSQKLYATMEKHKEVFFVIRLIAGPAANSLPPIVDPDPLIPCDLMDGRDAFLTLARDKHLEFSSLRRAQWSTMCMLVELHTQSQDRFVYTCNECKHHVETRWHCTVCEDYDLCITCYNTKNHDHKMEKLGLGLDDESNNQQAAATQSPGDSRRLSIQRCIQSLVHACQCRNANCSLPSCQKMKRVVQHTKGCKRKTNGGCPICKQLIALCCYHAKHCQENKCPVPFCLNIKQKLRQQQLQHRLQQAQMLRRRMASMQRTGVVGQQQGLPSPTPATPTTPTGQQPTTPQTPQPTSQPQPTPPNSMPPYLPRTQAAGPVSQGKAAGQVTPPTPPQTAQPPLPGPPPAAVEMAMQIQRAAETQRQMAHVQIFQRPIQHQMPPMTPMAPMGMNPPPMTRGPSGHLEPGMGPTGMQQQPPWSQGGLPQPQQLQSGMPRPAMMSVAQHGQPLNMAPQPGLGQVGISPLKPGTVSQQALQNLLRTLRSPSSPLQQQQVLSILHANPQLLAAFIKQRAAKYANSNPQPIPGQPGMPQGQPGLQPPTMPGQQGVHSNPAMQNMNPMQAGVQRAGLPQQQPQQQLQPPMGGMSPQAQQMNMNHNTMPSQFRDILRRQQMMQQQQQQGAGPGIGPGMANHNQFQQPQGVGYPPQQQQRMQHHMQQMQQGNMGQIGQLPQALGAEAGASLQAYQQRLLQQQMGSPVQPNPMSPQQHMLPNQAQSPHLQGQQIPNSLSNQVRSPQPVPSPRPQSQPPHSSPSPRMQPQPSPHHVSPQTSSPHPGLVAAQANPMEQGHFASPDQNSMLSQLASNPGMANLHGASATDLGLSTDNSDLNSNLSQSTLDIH

In assay [1], `CC(C)c1cc(-c2cccc3cc(-c4ccc(C(=O)NCC#Cc5cc6c(C7CCC(=O)NC7=O)nccc6s5)nc4)ncc23)cc2c1n(C)c(=O)n2C` (stereo not shown) [Example A208, N-(3-(4-(2,6-dioxo-piperidin-3-yl)thieno[3,2-c]pyridin-2-yl)prop-2-yn-1-yl)-5-(8-(7-isopropyl-1,3-dimethyl-2-oxo-2,3-dihydro-1H-benzo[d]imidazol-5-yl)isoquinolin-3-yl)picolinamide] gave a Dmax of over 80% and a DC50 of 0.001 to 0.0099 µM. In assay [2], this compound yielded a DC50 of 0.01 to 0.099 µM and a Dmax of 60 to 79%.

In assay [1], `Cn1c(=O)n(C)c2c(N3CC4CC(C3)O4)nc(-c3cccc4cc(-c5ccc(C(=O)NCC#Cc6cc7c(C8CCC(=O)NC8=O)cccc7o6)nc5)ncc34)cc21` (stereo not shown) [Example A210, 5-(8-(4-(6-oxa-3-azabicyclo[3.1.1]heptan-3-yl)-1,3-dimethyl-2-oxo-2,3-dihydro-1H-imidazo[4,5-c]pyridin-6-yl)isoquinolin-3-yl)-N-(3-(4-(2,6-dioxopiperidin-3-yl)benzofuran-2-yl)prop-2-yn-1-yl)picolinamide] displayed a Dmax of over 80% and a DC50 of under 0.001 µM. In assay [2], this compound returned a half-maximal degradation concentration (DC50) of over 1 µM and a Dmax of under 20%.

In assay [1], `CC(C)c1cc(N(C)c2cnc(-c3ccc(C(=O)NCC#Cc4ccc5cnn(C6CCC(=O)NC6=O)c5c4)nc3)nc2)cc2c1n(C)c(=O)n2C` (stereo not shown) [Example A211, N-(3-(1-(2,6-dioxo-piperidin-3-yl)-1H-indazol-6-yl)prop-2-yn-1-yl)-5-(5-((7-isopropyl-1,3-dimethyl-2-oxo-2,3-dihydro-1H-benzo [d]imidazol-5-yl)(methyl)amino)pyrimidin-2-yl)picolinamide] yielded a Dmax of over 80% and a DC50 of 0.001 to 0.0099 µM. Moreover, in assay [2], the DC50 was over 1 µM and the Dmax was under 20%.

In the case of `CC(C)c1cc(-c2cccc3cc(-c4ccc(C(=O)NCC#Cc5ccc6occ(C78CC(C7)C(=O)NC8=O)c6c5)nc4)ncc23)cc2c1n(C)c(=O)n2C` [Example A212, N-(3-(3-(2,4-dioxo-3-azabicyclo[3.1.1]heptan-1-yl)benzofuran-5-yl)prop-2-yn-1-yl)-5-(8-(7-isopropyl-1,3-dimethyl-2-oxo-2,3-dihydro-1H-benzo[d]imidazol-5-yl)isoquinolin-3-yl)picolinamide], the Dmax in assay [1] was over 80%; in assay [2] it was under 20%. In addition, the half-maximal degradation concentration (DC50) in assay [1] is 0.001 to 0.0099 µM; in assay [2] it was over 1 µM.

In the case of `Cn1c(=O)n(C)c2cc(-c3cccc4cc(-c5ccc(C(=O)NCC#Cc6cc7c(C8CCC(=O)NC8=O)nccc7o6)nc5)ncc34)ccc21` (stereo not shown) [Example A213, 5-(8-(1,3-dimethyl-2-oxo-2,3-dihydro-1H-benzo[d]imidazol-5-yl)isoquinolin-3-yl)-N-(3-(4-(2,6-dioxo-piperidin-3-yl)furo[3,2-c]pyridin-2-yl)prop-2-yn-1-yl)picolinamide], the results for the Dmax in assay [1] and in assay [2] were over 80% and under 20%, respectively. The DC50 is under 0.001 µM in assay [1] and over 1 µM in assay [2].

On to `CC(C)c1cc(-c2cccc3cc(-c4ccc(C(=O)NCC#Cc5cc6cccc(C7CCC(=O)NC7=O)c6o5)nc4)ncc23)cc2c1n(C)c(=O)n2C` (stereo not shown) [Example A216, N-(3-(7-(2,6-dioxo-piperidin-3-yl)benzofuran-2-yl)prop-2-yn-1-yl)-5-(8-(7-isopropyl-1,3-dimethyl-2-oxo-2,3-dihydro-1H-benzo [d]imidazol-5-yl)isoquinolin-3-yl)picolinamide], for which the results for the Dmax in assay [1] and in assay [2] were over 80% and under 20%, respectively. Moreover, the DC50 in assay [1] is 0.001 to 0.0099 µM; in assay [2], over 1 µM.

In assay [1], `Cc1cc(N2CCN(C)c3nc(-c4ccc(C(=O)NCC#Cc5cc6c(C7CCC(=O)NC7=O)cccc6o5)nc4)ncc32)cc2c1n(C)c(=O)n2C` (stereo not shown) [Example A219, N-(3-(4-(2,6-dioxo-piperidin-3-yl)benzofuran-2-yl)prop-2-yn-1-yl)-5-(8-methyl-5-(1,3,7-trimethyl-2-oxo-2,3-dihydro-1H-benzo[d]imidazol-5-yl)-5,6,7,8-tetrahydro-pteridin-2-yl)picolinamide] gave a Dmax of over 80% and a DC50 of under 0.001 µM. For the same compound, in assay [2], the DC50 was in the range of 0.1 to 0.999 µM and the Dmax was under 20%.

In assay [1], `CC(C)c1cc(-c2cccc3cc(-c4ccc(C(=O)NCC#Cc5cnc6c(c5)c(C5CCC(=O)NC5=O)nn6C)nc4)ncc23)cc2c1n(C)c(=O)n2C` (stereo not shown) [Example A221, N-(3-(3-(2,6-dioxo-piperidin-3-yl)-1-methyl-1H-pyrazolo [3,4-b]pyridin-5-yl)prop-2-yn-1-yl)-5-(8-(7-isopropyl-1,3-dimethyl-2-oxo-2,3-dihydro-1H-benzo[d]imidazol-5-yl)isoquinolin-3-yl)picolinamide] came in with a Dmax of over 80% and a DC50 of 0.001 to 0.0099 µM. In assay [2], this compound came in with a DC50 of over 1 µM and a Dmax of under 20%.

In assay [1], `Cn1c(=O)n(C)c2c(N3CCOCC3)nc(-c3cccc4cc(-c5ccc(C(=O)NCC#Cc6cc7c(C8CCC(=O)NC8=O)cccc7o6)nc5)ncc34)cc21` (stereo not shown) [Example A223, 5-(8-(1,3-dimethyl-4-morpholino-2-oxo-2,3-dihydro-1H-imidazo[4,5-c]pyridin-6-yl)isoquinolin-3-yl)-N-(3-(4-(2,6-dioxopiperidin-3-yl)benzofuran-2-yl)prop-2-yn-1-yl)picolinamide] gave a Dmax of over 80% and a 50% degradation concentration (DC50) of under 0.001 µM. In assay [2], the DC50 fell in the range of 0.1 to 0.999 µM and the Dmax was under 20%.

As to `Cn1c(=O)n(C)c2cc(N3CCCc4nc(-c5ccc(C(=O)NCC#Cc6cc7c(C8CCC(=O)NC8=O)cccc7o6)nc5)ncc43)ccc21` (stereo not shown) [Example A226, 5-(5-(1,3-dimethyl-2-oxo-2,3-dihydro-1H-benzo[d]imidazol-5-yl)-5,6,7,8-tetrahydropyrido [3,2-d]pyrimidin-2-yl)-N-(3-(4-(2,6-dioxo-piperidin-3-yl)benzofuran-2-yl)prop-2-yn-1-yl)picolinamide], the Dmax in assay [1] was over 80%; in assay [2], under 20%. Besides, the DC50 in assay [1] was under 0.001 µM; in assay [2], 0.1 to 0.999 µM.

Consider `CC(C)c1cc(-c2cccc3cc(-c4ccc(C(=O)NCC#Cc5cc6c(C7CCC(=O)NC7=O)coc6cc5F)nc4)ncc23)cc2c1n(C)c(=O)n2C` (stereo not shown) [Example A234, N-(3-(3-(2,6-dioxo-piperidin-3-yl)-6-fluorobenzofuran-5-yl)prop-2-yn-1-yl)-5-(8-(7-isopropyl-1,3-dimethyl-2-oxo-2,3-dihydro-1H-benzo [d]imidazol-5-yl)isoquinolin-3-yl)picolinamide], for which the values for the Dmax in assay [1] and in assay [2] were over 80% and under 20%, respectively. For the same compound, the results for the DC50 in assay [1] and in assay [2] were 0.001 to 0.0099 µM and over 1 µM, respectively.

In assay [1], `CC(C)c1cc(N2CCCc3nc(-c4ccc(C(=O)NCC#Cc5cc6c(C7CCC(=O)NC7=O)cccc6o5)nc4)ncc32)cc2c1n(C)c(=O)n2C` (stereo not shown) [Example A237, N-(3-(4-(2,6-dioxo-piperidin-3-yl)benzofuran-2-yl)prop-2-yn-1-yl)-5-(5-(7-isopropyl-1,3-dimethyl-2-oxo-2,3-dihydro-1H-benzo [d]imidazol-5-yl)-5,6,7,8-tetrahydro-pyrido[3,2-d]pyrimidin-2-yl)picolinamide] returned a maximal degradation (Dmax) of over 80% and a DC50 of under 0.001 µM. For the same compound, in assay [2], the DC50 was in the range of 0.1 to 0.999 µM and the Dmax was under 20%.

In assay [1], `Cc1cc(-c2cc3c(cn2)N(c2cc(C(C)C)c4c(c2)n(C)c(=O)n4C)CCC3)cnc1C(=O)NCC#Cc1ccn2ncc(C3CCC(=O)NC3=O)c2c1` (stereo not shown) [Example A238, N-(3-(3-(2,6-dioxo-piperidin-3-yl)pyrazolo[1,5-a]pyridin-5-yl)prop-2-yn-1-yl)-5-(1-(7-isopropyl-1,3-dimethyl-2-oxo-2,3-dihydro-1H-benzo[d]imidazol-5-yl)-1,2,3,4-tetrahydro-1,7-naphthyridin-6-yl)-3-methylpicolinamide] yielded a Dmax of over 80% and a DC50 of under 0.001 µM. Also, in assay [2], the DC50 lay within 0.001 to 0.0099 µM and the Dmax lay in the range of 40 to 59%.

As for `Cn1nc(C2CCC(=O)NC2=O)c2cc(C#CCNC(=O)c3ccc(-c4ncc5c(n4)OCCN5c4ccc5c(c4)n(C)c(=O)n5C)cn3)ccc21` (stereo not shown) [Example A243, 5-(5-(1,3-dimethyl-2-oxo-2,3-dihydro-1H-benzo[d]imidazol-5-yl)-6,7-dihydro-5H-pyrimido[4,5-b][1,4]oxazin-2-yl)-N-(3-(3-(2,6-dioxopiperidin-3-yl)-1-methyl-1H-indazol-5-yl)prop-2-yn-1-yl)picolinamide], in assay [1], the Dmax was over 80% and the DC50 lay in the range of 0.001 to 0.0099 µM. In assay [2], this compound showed a 50% degradation concentration (DC50) of over 1 µM and a Dmax of under 20%.

In assay [1], `Cn1c(=O)n(C)c2cc(N3CCOc4nc(-c5ccc(C(=O)NCC#Cc6cc7cccc(C8CCC(=O)NC8=O)c7o6)nc5)ncc43)ccc21` (stereo not shown) [Example A247, 5-(5-(1,3-dimethyl-2-oxo-2,3-dihydro-1H-benzo[d]imidazol-5-yl)-6,7-dihydro-5H-pyrimido[4,5-b][1,4]oxazin-2-yl)-N-(3-(7-(2,6-dioxopiperidin-3-yl)benzofuran-2-yl)prop-2-yn-1-yl) picolinamide] displayed a Dmax of 20 to 39% and a DC50 of 0.01 to 0.099 µM. In addition, in assay [2], the DC50 is over 1 µM and the Dmax is under 20%.

In assay [1], `Cc1oc2ccc(C#CCNC(=O)c3ccc(-c4cc5cccc(-c6cc(C(C)C)c7c(c6)n(C)c(=O)n7C)c5cn4)cn3)cc2c1C1CCC(=O)NC1=O` (stereo not shown) [Example A248, N-(3-(3-(2,6-dioxo-piperidin-3-yl)-2-methylbenzofuran-5-yl)prop-2-yn-1-yl)-5-(8-(7-isopropyl-1,3-dimethyl-2-oxo-2,3-dihydro-1H-benzo [d]imidazol-5-yl)isoquinolin-3-yl) picolinamide] displayed a Dmax of over 80% and a DC50 of 0.01 to 0.099 µM. In assay [2], the half-maximal degradation concentration (DC50) was over 1 µM and the Dmax was under 20%.
